3 molecules from patent US20060217425A1, “Methods of treating cancer using PPAR-gamma antagonists” (priority 2005, published 2006) can be followed below.

Entries after “also recorded” stand apart in the source; their conditions may differ. Read-outs that look alike come from different tables or passages of the source. Some results are limits rather than exact numbers.

As a reminder, the IC50 is the concentration at which inhibition is half-maximal.

What all share (type): cell-based
Experiment [1] has as its system panel of solid tumor and hematopoietic cancer cell lines. The experiment is described as follows: MTT proliferation assay, panel of solid tumor and hematopoietic cancer cell lines. Here is the method:
(§1) In one study, in vitro cytotoxicity of a PPARγ agonist with a favorable toxicity profile (pioglitazone [Actos®]) was tested against two PPARγ antagonists (T0070907 and GW9662) in a panel of solid tumor and hematopoietic cancer cell lines, using an MTT proliferation assay.
(§2) In one exemplary method, stock solutions of the above referenced agents were dissolved in 50:50 DMSO:DMF and then diluted into cell growth medium. Concentrations of 2-40 micromolar over 5-7 days provided significant growth inhibition for a range of hematopoietic (NHL & MM) and epithelial lines (renal cell, colon, breast). […] Also, both antagonists were dissolved in a cyclodextrin-propylene glycol vehicle and administered to mice at doses of 7.5-15 mg/kg intraperitoneally daily for 3 weeks with mild-moderate toxicity.
(Tetrazolium dyes change colour on reduction, which living cells bring about.)

The next experiment concerns solid tumor lines. Kind of experiment: MTT proliferation assay, solid tumor lines. The protocol:
as §1, §2

For experiment [2], the system named is Hematopoietic (NHL and MM) cell lines. The experiment is described as follows: MTT proliferation assay, hematopoietic (NHL and MM) cell lines. As to conditions: unit printed only in the preceding sentence. Here is the method: as §1, §2

In the case of `O=C(Nc1ccccc1)c1cc([N+](=O)[O-])ccc1Cl` [GW9662], in experiment [1], the “effect of combination with the agonist pioglitazone on growth inhibition of cancer cell lines” value is recorded as “additive increases in growth inhibition; also recorded: additive effects”.
Regarding `O=C(Nc1ccncc1)c1cc([N+](=O)[O-])ccc1Cl` [T0070907], in experiment [1], the “effect of combination with the agonist pioglitazone on growth inhibition of cancer cell lines” value is given as “additive increases in growth inhibition; also recorded: additive effects”. Moreover, the relative potency result in experiment [1] (comparison of IC50 values) is “more potent than GW9662”.
In the case of `CCc1ccc(CCOc2ccc(CC3SC(=O)NC3=O)cc2)nc1` (stereo not shown) [pioglitazone], the IC50 in the experiment on solid tumor lines (MTT proliferation assay, range across solid tumor lines, read-out: IC50 in solid tumor lines (range over lines)) is at least 11.1 µM; in the experiment with solid tumor lines (mean±SD across solid tumor lines, read-out: IC50 in solid tumor lines, mean±SD), 60.1 ± 28.1 µM; in experiment [2] (MTT proliferation assay, range across NHL and MM lines, read-out: IC50 in hematopoietic (NHL and MM) cell lines (range over lines)), 82 to 125 µM; in experiment [2] (mean±SD across NHL and MM lines, read-out: IC50 in hematopoietic (NHL and MM) cell lines, mean±SD), 101 ± 17.7 µM.
